Laboratory results: PubChem BioAssay AID222 (DTP/NCI, 2004)
Where “and” joins values, the source holds several entries; their conditions need not be identical. Equal entries are not always repeated. Toxic doses and inconclusive results are not listed. How the source made its calls: active means survival T/C of 150% or more; inactive means T/C below 125% in these data.

System: C57BL/6 mice, intracerebral ependymoblastoma, median survival T/C
Assay: NCI In Vivo Anticancer Drug Screen. Data for tumor model Ependymoblastoma (intracerebral) in C57BL/6 mice
Settings: endpoint: median survival time, higher = longer survival
Method: The antitumor activity of compounds was measured in mice bearing transplantable tumors. Survival or tumor size were measured and the results are expressed as the measurement made in the treated group (T) divided by the measurement made in the vehicle treated control group (C). The tumor model used in this assay is Ependymoblastoma (intracerebral) in C57BL/6 mice

[1] = dose: 12.5 mg/kg/injection, schedule: Q01DX005 (ip), vehicle: Klucel (hydroxypropylcellulose) (HPC)
[2] = dose: 1.0 mg/kg/injection, schedule: Q01DX005 (ip), vehicle: Klucel (hydroxypropylcellulose) (HPC)
[3] = dose: 2.0 mg/kg/injection, schedule: Q01DX005 (ip), vehicle: Klucel (hydroxypropylcellulose) (HPC)
[4] = dose: 2.0 mg/kg/injection, schedule: Q01DX005 (ip), vehicle: saline
[5] = dose: 4.0 mg/kg/injection, schedule: Q01DX005 (ip), vehicle: Klucel (hydroxypropylcellulose) (HPC)
[6] = dose: 8.0 mg/kg/injection, schedule: Q01DX005 (ip), vehicle: Klucel (hydroxypropylcellulose) (HPC)
[7] = dose: 16.0 mg/kg/injection, schedule: Q01DX005 (ip), vehicle: Klucel (hydroxypropylcellulose) (HPC)
[8] = dose: 32.0 mg/kg/injection, schedule: Q01DX005 (ip), vehicle: saline
[9] = dose: 8.0 mg/kg/injection, schedule: Q01DX005 (ip), vehicle: saline with Tween-80
[10] = dose: 8.0 mg/kg/injection, schedule: Q01DX005 (ip), vehicle: saline
[11] = dose: 16.0 mg/kg/injection, schedule: Q01DX005 (ip), vehicle: saline with Tween-80
[12] = dose: 16.0 mg/kg/injection, schedule: Q01DX005 (ip), vehicle: saline
[13] = dose: 4.0 mg/kg/injection, schedule: Q01DX005 (ip), vehicle: saline with Tween-80
[14] = dose: 4.0 mg/kg/injection, schedule: Q01DX005 (ip), vehicle: saline
[15] = dose: 20.0 mg/kg/injection, schedule: Q01DX005 (ip), vehicle: saline

Measured: T/C

O=c1c(O)c(-c2ccc(O)c(O)c2)oc2cc(O)cc(O)c12
inactive: [1] 95 % of control | dose: 12.5 mg/kg/injection, schedule: Q01DX005 (ip), vehicle: other 107 % of control | dose: 25.0 mg/kg/injection, schedule: Q01DX005 (ip), vehicle: Klucel (hydroxypropylcellulose) (HPC) 104 % of control | dose: 25.0 mg/kg/injection, schedule: Q01DX005 (ip), vehicle: other 93 % of control | dose: 50.0 mg/kg/injection, schedule: Q01DX005 (ip), vehicle: Klucel (hydroxypropylcellulose) (HPC) 100 % of control | dose: 50.0 mg/kg/injection, schedule: Q01DX005 (ip), vehicle: other 91 % of control | dose: 100.0 mg/kg/injection, schedule: Q01DX005 (ip), vehicle: Klucel (hydroxypropylcellulose) (HPC) 99 % of control | dose: 100.0 mg/kg/injection, schedule: Q01DX005 (ip), vehicle: other 102 % of control | dose: 200.0 mg/kg/injection, schedule: Q01DX005 (ip), vehicle: other 105 % of control

O=C1NC2(CCCCC2)C(=O)N1CCN(CCCl)CCCl
inactive: dose: 0.75 mg/kg/injection, schedule: Q01DX009 (ip), vehicle: Klucel (hydroxypropylcellulose) (HPC) 101 % of control | [2] 101 % of control | dose: 1.0 mg/kg/injection, schedule: Q01DX005 (ip), vehicle: saline 105 % of control | dose: 1.5 mg/kg/injection, schedule: Q01DX009 (ip), vehicle: Klucel (hydroxypropylcellulose) (HPC) 100 % of control | [3] 105 % of control | [4] 93 % of control and 108 % of control | dose: 3.0 mg/kg/injection, schedule: Q01DX009 (ip), vehicle: Klucel (hydroxypropylcellulose) (HPC) 106 % of control | [5] 102 % of control | dose: 6.25 mg/kg/injection, schedule: Q01DX005 (ip), vehicle: Klucel (hydroxypropylcellulose) (HPC) 119 % of control | [6] 94 % of control and 107 % of control | [1] 114 % of control | [7] 97 % of control | [8] 111 % of control

C[n+]1ccc(Nc2ccc(NC(=O)c3ccc(Nc4cc[n+](C)c5ccc(N)cc45)cc3)cc2)cc1
inactive: [2] 95 % of control | [3] 113 % of control | [5] 108 % of control | [6] 113 % of control

O=c1[nH]c(=O)n([C@H]2CCCO2)cc1F
inactive: [6] 97 % of control and 98 % of control | [9] 90 % of control and 97 % of control | [10] 101 % of control and 111 % of control | [7] 100 % of control and 106 % of control and 112 % of control | [11] 103 % of control and 105 % of control | [12] 100 % of control and 110 % of control | dose: 32.0 mg/kg/injection, schedule: Q01DX005 (ip), vehicle: Klucel (hydroxypropylcellulose) (HPC) 98 % of control and 109 % of control and 114 % of control | dose: 32.0 mg/kg/injection, schedule: Q01DX005 (ip), vehicle: saline with Tween-80 102 % of control and 106 % of control | [8] 102 % of control and 109 % of control (2×) | dose: 64.0 mg/kg/injection, schedule: Q01DX005 (ip), vehicle: Klucel (hydroxypropylcellulose) (HPC) 100 % of control and 103 % of control and 108 % of control | dose: 64.0 mg/kg/injection, schedule: Q01DX005 (ip), vehicle: saline with Tween-80 104 % of control and 120 % of control | dose: 64.0 mg/kg/injection, schedule: Q01DX005 (ip), vehicle: saline 98 % of control and 111 % of control (2×) | dose: 128.0 mg/kg/injection, schedule: Q01DX005 (ip), vehicle: Klucel (hydroxypropylcellulose) (HPC) 112 % of control and 117 % of control | dose: 128.0 mg/kg/injection, schedule: Q01DX005 (ip), vehicle: saline with Tween-80 111 % of control and 114 % of control | dose: 128.0 mg/kg/injection, schedule: Q01DX005 (ip), vehicle: saline 102 % of control and 113 % of control and 119 % of control | dose: 256.0 mg/kg/injection, schedule: Q01DX005 (ip), vehicle: saline 106 % of control and 121 % of control

Nc1nc([Se])c2ncn(C3OC(CO)C(O)C3O)c2n1 (configuration not stated)
inactive: dose: 0.25 mg/kg/injection, schedule: Q01DX005 (ip), vehicle: Klucel (hydroxypropylcellulose) (HPC) 103 % of control and 106 % of control | dose: 0.5 mg/kg/injection, schedule: Q01DX005 (ip), vehicle: Klucel (hydroxypropylcellulose) (HPC) 107 % of control and 112 % of control | [2] 99 % of control and 101 % of control | [3] 100 % of control and 102 % of control and 112 % of control | [5] 88 % of control and 105 % of control and 112 % of control | [13] 96 % of control | [14] 100 % of control | [9] 100 % of control | [10] 98 % of control and 99 % of control | [7] 102 % of control and 103 % of control | [11] 113 % of control | [12] 106 % of control and 111 % of control | dose: 27.8 mg/kg/injection, schedule: Q## X006 (ip), vehicle: saline 108 % of control | [8] 116 % of control | dose: 32.0 mg/kg/injection, schedule: Q#A X002 (ip), vehicle: saline 95 % of control and 104 % of control | dose: 55.7 mg/kg/injection, schedule: Q## X006 (ip), vehicle: saline 112 % of control | dose: 64.0 mg/kg/injection, schedule: Q#A X002 (ip), vehicle: saline 101 % of control and 120 % of control | dose: 128.0 mg/kg/injection, schedule: Q#A X002 (ip), vehicle: saline 87 % of control

NC(=O)c1ncn(C2OC(CO)C(O)C2O)n1 (configuration not stated)
inactive: [15] 108 % of control | dose: 40.0 mg/kg/injection, schedule: Q01DX005 (ip), vehicle: saline 105 % of control | dose: 80.0 mg/kg/injection, schedule: Q01DX005 (ip), vehicle: saline 108 % of control

O=C1c2c(O)ccc(O)c2C(=O)c2c(NCCNCCO)ccc(NCCNCCO)c21
inactive: dose: 1.0 mg/kg/injection, schedule: Q01DX005 (ip), vehicle: saline with Tween-80 102 % of control | dose: 2.0 mg/kg/injection, schedule: Q01DX005 (ip), vehicle: saline with Tween-80 96 % of control | [13] 106 % of control

O=c1[nH]cc(F)c(=O)[nH]1
inactive: [4] 113 % of control | dose: 2.5 mg/kg/injection, schedule: Q01DX005 (ip), vehicle: saline 101 % of control | [14] 108 % of control | dose: 5.0 mg/kg/injection, schedule: Q01DX005 (ip), vehicle: saline 94 % of control | [10] 97 % of control | dose: 10.0 mg/kg/injection, schedule: Q01DX005 (ip), vehicle: saline 97 % of control | [12] 106 % of control | [15] 95 % of control | [8] 106 % of control

CCC1CC2CN(CCc3c([nH]c4ccccc34)C(C(=O)OC)(c3cc4c(cc3OC)N(C)C3C(O)(C(=O)OC)C(OC(C)=O)C5(CC)C=CCN6CCC43C65)C2)C1 (configuration not stated)
inactive: dose: 0.05 mg/kg/injection, schedule: Q01DX005 (ip), vehicle: Klucel (hydroxypropylcellulose) (HPC) 102 % of control | dose: 0.1 mg/kg/injection, schedule: Q01DX005 (ip), vehicle: Klucel (hydroxypropylcellulose) (HPC) 108 % of control | dose: 0.2 mg/kg/injection, schedule: Q01DX005 (ip), vehicle: Klucel (hydroxypropylcellulose) (HPC) 108 % of control | dose: 0.4 mg/kg/injection, schedule: Q01DX005 (ip), vehicle: Klucel (hydroxypropylcellulose) (HPC) 108 % of control | dose: 0.8 mg/kg/injection, schedule: Q01DX005 (ip), vehicle: Klucel (hydroxypropylcellulose) (HPC) 108 % of control | dose: 1.6 mg/kg/injection, schedule: Q01DX005 (ip), vehicle: Klucel (hydroxypropylcellulose) (HPC) 102 % of control

COS(C)(=O)=O
inactive: [12] 113 % of control
